Values quoted from earlier work as cited in patent US12582620B2, “Oral solutions comprising lisdexamfetamine salts” (Adalvo Limited, priority 2019, dated 2026).

How the values were obtained:
[1] = acidic versus alkaline conditions
[2] = not given; remark: listed apart in the source

C[C@@H](Cc1ccccc1)NC(=O)[C@@H](N)CCCCN [Lisdexamfetamine dimesylate, (2S)-2,6-diamino-N-[(1S)-1-methyl-2-phenylethyl] hexanamide dimethanesulfonate]
Susceptibility to hydrolysis [1]: more hydrolysis-susceptible under alkaline conditions
Change of solubility (increasing the pH from 8 to 13): modest reductions
Solubility (physiologically relevant pH range (pH 1-8), saturated buffered aqueous solutions): highly soluble
Solubility in water [2]: very soluble in water
